Measurements from ChEMBL document CHEMBL1201862, “PubChem BioAssay data set” (2004).
Calls of active or inactive are those of the source.

Legend:
Leucine aminopeptidase = target: T1, Leucine aminopeptidase (Plasmodium falciparum 3D7, UniProt Q8IL11); assay: P. falciparum M17LAP inhibitors, primary screen, biochemical, fluorogenic H-Leu-NHMec substrate, 1536-well (AID 1619); type: functional
T1 sequence (Q8IL11 whole entry): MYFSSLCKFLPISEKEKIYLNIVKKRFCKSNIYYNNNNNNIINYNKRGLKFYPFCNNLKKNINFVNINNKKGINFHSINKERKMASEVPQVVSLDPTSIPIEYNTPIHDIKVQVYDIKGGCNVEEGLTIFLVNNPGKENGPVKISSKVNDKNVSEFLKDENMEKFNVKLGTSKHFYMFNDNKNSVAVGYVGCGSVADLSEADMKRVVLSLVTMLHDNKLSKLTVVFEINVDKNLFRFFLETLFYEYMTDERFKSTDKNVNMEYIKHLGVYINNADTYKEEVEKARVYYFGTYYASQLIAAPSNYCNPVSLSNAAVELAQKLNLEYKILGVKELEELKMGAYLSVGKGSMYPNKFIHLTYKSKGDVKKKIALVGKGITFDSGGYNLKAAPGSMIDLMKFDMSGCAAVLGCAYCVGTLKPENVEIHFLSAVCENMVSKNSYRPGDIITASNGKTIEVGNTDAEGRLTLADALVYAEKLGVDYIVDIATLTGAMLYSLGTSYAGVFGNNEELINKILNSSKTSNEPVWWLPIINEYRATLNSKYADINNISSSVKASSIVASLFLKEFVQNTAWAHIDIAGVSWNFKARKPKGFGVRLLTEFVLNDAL

[1] = target: Glyceraldehyde-3-phosphate dehydrogenase (Homo sapiens, UniProt P04406)
ORF 73 = ORF 73 (Human herpesvirus 8, UniProt O40947); assay: inhibitors of C-LANA binding to LBS DNA, dose response, biochemical, fluorescence polarization, cherry-picked samples (AID 504725); design: species or system Human gammaherpesvirus 8;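 further: fluorescence polarization of a labeled DNA duplex reporting LANA DNA binding; potency is for inhibitors that block LANA binding to the DNA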
[2] = target: Glucose-6-phosphate 1-dehydrogenase (Homo sapiens, UniProt P11413); assay: human G6PD enzyme inhibitors, dose response, selectivity assay for P. falciparum G6PD inhibitor project, biochemical, fluorescence (AID 504792); type: functional
[3] = target: T2, Oxysterols receptor LXR-beta (Homo sapiens, UniProt P55055); type: functional, cell-based;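 further: Cell-based luminescence dose-response assay of agonist activity at LXR, run as a confirmatory counterscreen to a daf-12 agonist screen; HEK293 cells with Gal4-LXR fusion and GAL4-driven luciferase reporter; agonist potency from rising luciferase signal of a Gal4-LXR reporter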
T2 sequence (P55055 whole entry): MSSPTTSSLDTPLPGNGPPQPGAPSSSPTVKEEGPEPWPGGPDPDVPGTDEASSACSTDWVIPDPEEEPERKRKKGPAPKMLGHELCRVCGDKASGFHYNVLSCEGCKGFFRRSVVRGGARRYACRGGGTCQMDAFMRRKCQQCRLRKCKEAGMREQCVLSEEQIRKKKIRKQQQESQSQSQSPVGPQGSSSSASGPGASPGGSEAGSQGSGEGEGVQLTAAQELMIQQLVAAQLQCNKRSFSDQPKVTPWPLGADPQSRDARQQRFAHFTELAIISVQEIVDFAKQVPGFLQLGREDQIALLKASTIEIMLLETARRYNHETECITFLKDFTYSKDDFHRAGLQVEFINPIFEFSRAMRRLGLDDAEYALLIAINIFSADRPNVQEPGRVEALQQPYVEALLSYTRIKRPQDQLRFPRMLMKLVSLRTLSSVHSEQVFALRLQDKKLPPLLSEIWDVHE

[4] = target: T3, Sentrin-specific protease 8 (Homo sapiens, UniProt Q96LD8); type: functional;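 further: kinetic enzyme assay of SENP8 cleaving a Nedd8 protein substrate, dose-response confirmation of screening hits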
T3 sequence (Q96LD8 whole entry): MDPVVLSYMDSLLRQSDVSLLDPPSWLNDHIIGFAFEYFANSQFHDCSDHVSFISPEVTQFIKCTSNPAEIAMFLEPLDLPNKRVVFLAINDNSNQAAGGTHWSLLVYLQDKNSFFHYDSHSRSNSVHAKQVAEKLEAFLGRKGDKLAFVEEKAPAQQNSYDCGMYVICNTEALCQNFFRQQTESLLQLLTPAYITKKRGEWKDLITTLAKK

[5] = target: Serine/threonine-protein kinase Nek4 (Homo sapiens, UniProt P51957); type: functional
[6] = target: Homeodomain-interacting protein kinase 4 (Homo sapiens, UniProt Q8NE63); type: functional
[7] = target: Homeodomain-interacting protein kinase 2 (Homo sapiens, UniProt Q9H2X6); type: functional;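 further: measured within a kinome-wide kinase profiling panel, HIPK2 being one panel member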
[8] = target: Vascular endothelial growth factor receptor 1 (Homo sapiens, UniProt P17948); type: functional;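 further: measured within a kinome-wide profiling panel, FLT1 as the panel member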
[9] = target: Protein-tyrosine kinase 6 (Homo sapiens, UniProt Q13882); type: functional
[10] = target: Tyrosine-protein kinase ABL1 (Homo sapiens, UniProt P00519); type: functional
[11] = target: Cyclin-dependent kinase 1 (Homo sapiens, UniProt P06493); type: functional;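 further: Kinome-wide panel profiling, with the target listed as panel member CDC2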
[12] = target: Cyclin-dependent kinase 7 (Homo sapiens, UniProt P50613); type: functional;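 further: value comes from a kinome-wide kinase profiling panel in which CDK7 is one member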
[13] = target: Serine/threonine-protein kinase DCLK1 (Homo sapiens, UniProt O15075); type: functional;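 further: affinity for DCLK1 (listed as DCAMKL1) measured as one member of a kinome-wide kinase profiling panel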
[14] = target: Tyrosine-protein kinase JAK2 (Homo sapiens, UniProt O60674); type: functional;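 further: JAK2 tested as one member of a kinase panel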
[15] = target: Receptor tyrosine-protein kinase erbB-2 (Homo sapiens, UniProt P04626); assay: Navigating the Kinome. Panel member name: ERBB2; type: functional
[16] = target: Maternal embryonic leucine zipper kinase (Homo sapiens, UniProt Q14680); type: functional
Chain of Maternal embryonic leucine zipper kinase (Q14680 whole entry): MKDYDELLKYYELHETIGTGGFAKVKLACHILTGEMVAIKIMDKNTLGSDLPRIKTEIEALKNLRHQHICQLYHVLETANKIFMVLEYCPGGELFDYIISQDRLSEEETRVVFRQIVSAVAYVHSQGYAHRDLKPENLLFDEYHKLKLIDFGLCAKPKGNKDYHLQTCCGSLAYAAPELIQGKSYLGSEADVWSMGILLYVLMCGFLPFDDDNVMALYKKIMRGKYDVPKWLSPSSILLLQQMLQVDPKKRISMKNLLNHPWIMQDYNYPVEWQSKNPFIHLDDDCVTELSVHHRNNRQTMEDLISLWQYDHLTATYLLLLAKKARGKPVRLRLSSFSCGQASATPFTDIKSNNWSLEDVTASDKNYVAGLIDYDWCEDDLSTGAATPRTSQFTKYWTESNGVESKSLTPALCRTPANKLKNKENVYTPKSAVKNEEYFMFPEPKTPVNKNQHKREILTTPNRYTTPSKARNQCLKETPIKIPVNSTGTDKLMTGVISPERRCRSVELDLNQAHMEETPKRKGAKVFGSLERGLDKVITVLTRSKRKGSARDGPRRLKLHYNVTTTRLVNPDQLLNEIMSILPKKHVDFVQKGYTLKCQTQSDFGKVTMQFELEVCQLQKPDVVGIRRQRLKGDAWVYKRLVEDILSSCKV

Chain of Cyclin-dependent kinase 7 (P50613 whole entry): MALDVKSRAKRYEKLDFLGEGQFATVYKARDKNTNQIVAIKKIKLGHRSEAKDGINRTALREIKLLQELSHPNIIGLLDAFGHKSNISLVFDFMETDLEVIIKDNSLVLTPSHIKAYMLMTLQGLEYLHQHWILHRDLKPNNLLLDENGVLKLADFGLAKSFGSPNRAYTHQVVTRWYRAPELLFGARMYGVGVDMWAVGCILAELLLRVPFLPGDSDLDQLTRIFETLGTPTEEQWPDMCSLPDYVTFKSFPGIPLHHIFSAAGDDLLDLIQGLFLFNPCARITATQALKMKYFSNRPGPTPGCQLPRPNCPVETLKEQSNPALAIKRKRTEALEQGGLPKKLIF
Chain of Cyclin-dependent kinase 1 (P06493 whole entry): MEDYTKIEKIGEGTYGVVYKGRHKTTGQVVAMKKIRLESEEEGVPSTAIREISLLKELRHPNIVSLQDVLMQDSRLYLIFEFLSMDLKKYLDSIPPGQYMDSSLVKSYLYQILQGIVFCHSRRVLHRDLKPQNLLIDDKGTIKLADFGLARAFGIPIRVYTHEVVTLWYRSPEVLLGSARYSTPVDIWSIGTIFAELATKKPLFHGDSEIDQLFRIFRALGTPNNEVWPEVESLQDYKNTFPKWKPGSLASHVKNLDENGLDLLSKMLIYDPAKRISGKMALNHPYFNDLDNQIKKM
Chain of ORF 73 (O40947 whole entry): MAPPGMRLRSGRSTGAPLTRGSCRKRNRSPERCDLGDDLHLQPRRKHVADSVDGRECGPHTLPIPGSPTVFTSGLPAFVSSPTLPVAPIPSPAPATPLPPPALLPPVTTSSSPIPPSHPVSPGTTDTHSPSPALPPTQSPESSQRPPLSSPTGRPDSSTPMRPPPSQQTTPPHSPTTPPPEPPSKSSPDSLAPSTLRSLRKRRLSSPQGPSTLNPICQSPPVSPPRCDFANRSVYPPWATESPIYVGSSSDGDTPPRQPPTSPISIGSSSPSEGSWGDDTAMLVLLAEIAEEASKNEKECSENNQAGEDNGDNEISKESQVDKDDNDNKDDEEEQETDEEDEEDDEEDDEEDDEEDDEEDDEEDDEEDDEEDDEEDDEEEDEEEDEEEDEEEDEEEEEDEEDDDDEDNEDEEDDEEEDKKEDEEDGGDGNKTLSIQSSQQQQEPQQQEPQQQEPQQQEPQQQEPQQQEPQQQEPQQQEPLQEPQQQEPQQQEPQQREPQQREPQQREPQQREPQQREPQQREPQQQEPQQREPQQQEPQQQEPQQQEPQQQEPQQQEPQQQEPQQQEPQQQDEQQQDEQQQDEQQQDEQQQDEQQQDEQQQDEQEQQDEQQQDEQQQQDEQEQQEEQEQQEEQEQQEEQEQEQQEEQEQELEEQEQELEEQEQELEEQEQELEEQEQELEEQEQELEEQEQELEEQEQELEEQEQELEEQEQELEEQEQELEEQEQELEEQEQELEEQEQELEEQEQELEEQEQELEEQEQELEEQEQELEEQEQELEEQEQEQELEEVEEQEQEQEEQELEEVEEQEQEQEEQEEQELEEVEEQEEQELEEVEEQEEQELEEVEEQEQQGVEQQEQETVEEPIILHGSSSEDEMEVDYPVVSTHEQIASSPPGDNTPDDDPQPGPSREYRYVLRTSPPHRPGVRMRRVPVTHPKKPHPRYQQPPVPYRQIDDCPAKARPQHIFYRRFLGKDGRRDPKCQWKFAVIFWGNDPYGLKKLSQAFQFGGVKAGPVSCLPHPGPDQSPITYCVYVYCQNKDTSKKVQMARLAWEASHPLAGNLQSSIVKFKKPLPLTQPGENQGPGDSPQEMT
Chain of Receptor tyrosine-protein kinase erbB-2 (P04626 whole entry): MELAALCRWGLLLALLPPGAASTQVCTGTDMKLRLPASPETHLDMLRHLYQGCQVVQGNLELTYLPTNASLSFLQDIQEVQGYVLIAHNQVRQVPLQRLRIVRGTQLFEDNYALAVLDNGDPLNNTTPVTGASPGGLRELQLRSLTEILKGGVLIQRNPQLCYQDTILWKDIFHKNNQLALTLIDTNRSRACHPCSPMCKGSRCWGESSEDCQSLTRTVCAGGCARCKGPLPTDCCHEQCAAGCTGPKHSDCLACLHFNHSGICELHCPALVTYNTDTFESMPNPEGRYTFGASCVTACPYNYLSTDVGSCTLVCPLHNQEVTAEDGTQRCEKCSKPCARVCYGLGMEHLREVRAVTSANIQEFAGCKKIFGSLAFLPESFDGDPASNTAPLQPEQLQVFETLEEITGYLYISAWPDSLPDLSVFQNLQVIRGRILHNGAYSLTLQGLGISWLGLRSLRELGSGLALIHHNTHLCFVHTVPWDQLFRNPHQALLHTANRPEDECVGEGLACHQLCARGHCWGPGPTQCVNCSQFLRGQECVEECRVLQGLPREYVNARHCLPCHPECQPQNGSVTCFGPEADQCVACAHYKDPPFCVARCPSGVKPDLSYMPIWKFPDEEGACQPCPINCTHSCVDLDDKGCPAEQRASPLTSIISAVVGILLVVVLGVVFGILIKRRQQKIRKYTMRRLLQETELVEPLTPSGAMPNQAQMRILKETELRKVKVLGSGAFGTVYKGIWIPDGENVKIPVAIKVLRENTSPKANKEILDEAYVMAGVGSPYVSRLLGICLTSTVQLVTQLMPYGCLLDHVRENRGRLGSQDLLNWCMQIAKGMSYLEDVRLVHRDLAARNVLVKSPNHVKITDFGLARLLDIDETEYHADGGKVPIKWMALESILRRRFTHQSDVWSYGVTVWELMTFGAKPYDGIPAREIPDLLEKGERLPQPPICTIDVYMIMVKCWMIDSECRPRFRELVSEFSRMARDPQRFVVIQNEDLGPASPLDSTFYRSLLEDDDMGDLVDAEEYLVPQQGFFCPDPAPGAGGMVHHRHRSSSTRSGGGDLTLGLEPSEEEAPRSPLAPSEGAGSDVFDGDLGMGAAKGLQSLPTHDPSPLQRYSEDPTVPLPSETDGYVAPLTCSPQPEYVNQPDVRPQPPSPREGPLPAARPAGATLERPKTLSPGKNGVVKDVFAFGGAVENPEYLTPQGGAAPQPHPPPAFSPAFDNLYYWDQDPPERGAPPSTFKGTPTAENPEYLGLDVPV
Chain of Tyrosine-protein kinase JAK2 (O60674 whole entry): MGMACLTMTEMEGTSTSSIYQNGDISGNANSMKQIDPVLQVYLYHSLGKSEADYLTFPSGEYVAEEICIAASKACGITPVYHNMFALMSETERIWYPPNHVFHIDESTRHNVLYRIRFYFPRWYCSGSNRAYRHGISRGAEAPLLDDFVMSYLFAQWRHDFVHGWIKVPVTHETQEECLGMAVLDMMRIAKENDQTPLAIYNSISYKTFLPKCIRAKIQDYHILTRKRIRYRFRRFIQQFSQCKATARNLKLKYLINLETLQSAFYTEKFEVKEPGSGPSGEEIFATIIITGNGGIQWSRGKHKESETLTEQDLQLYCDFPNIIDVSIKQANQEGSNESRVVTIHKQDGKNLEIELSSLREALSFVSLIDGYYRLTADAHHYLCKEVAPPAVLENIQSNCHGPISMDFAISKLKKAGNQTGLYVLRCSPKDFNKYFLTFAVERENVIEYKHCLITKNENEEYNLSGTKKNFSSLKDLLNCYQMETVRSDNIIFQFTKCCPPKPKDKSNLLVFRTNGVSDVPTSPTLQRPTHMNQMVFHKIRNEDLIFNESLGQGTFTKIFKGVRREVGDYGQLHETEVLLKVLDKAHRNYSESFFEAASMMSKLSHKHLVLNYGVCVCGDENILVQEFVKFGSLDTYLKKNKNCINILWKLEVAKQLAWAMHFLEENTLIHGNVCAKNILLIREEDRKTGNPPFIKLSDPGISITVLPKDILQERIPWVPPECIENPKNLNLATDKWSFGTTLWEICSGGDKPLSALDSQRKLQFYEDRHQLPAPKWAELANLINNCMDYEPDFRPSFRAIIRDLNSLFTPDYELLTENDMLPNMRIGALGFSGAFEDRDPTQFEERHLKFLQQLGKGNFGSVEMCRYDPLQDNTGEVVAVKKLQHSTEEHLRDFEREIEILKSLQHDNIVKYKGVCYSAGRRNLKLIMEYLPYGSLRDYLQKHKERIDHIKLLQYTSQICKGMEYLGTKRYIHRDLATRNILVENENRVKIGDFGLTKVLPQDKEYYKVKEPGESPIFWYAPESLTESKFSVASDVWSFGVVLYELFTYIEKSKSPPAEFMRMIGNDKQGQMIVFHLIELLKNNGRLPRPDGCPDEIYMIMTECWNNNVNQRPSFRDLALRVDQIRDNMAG

`O=C1N=C(NS(=O)(=O)Cc2ccccc2)S/C1=C1\C(=O)Nc2ccccc21` was tested, and the IC50 (Leucine aminopeptidase) was 26.7 µM (active).

For `O=C(O)C1Nc2c(O)cc(Cl)c([N+](=O)[O-])c2C2C=CCC12` (stereo not given), the IC50 [1] was 37.8 µM (active) and the AC50 (ORF 73) was 5.02 µM (active).

`Clc1ccc2nc(-c3ccc(Br)s3)cn2c1` was tested, and the IC50 [2] was > 80 µM (inactive) and the EC50 [3] was > 67.5 µM (inactive).

In the case of `O=C(CCc1ccccc1)NNc1cc(N2CCCCC2)nc(N2CCCCC2)n1`, the IC50 [4] is reported as 1.01 µM (active).

With `Cc1n[nH]c2ccc(-c3cncc(OCC(N)Cc4cccc(Cl)c4)c3)cc12` (stereo not given) the Ki [5] was 0.251 µM (active), the Ki [6] was 1.58 µM (active) and the Ki [7] was 0.0794 µM (active). The Ki [8] was > 0.398 µM (inactive), the Ki [9] was > 2.51 µM (inactive) and the Ki [10] was > 0.631 µM (inactive). For the same molecule, the Ki [11] was 0.0398 µM (active), the pKi [11] was 7.4 and the Ki [12] was 0.02 µM (active). For the same molecule, the pKi [12] was 7.7, the Ki [13] was 3.16 µM (active) and the Ki [14] was 1.26 µM (active). The Ki [15] was > 1.58 µM (inactive) and the Ki [16] was 0.0794 µM (active).
